From the supplement of paper PMC10307832

Key:
Assay in all cases: relative viability (nuclei count vs DMSO), 5 days (fraction); higher = more cells survive
QS11 + Dasatinib = compound: C1CC2=C(C1)C=C(C=C2)OC3=NC(=C4C(=N3)N(C=N4)CC5=CC=C(C=C5)C6=CC=CC=C6)N[C@@H](CC7=CC=CC=C7)CO [QS11] + Cc1nc(Nc2ncc(C(=O)Nc3c(C)cccc3Cl)s2)cc(N2CCN(CCO)CC2)n1 [Dasatinib] (partner 0.075 µM)
In short: (§1)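 Relative viability is defined as nuclei in treated wells over nuclei in vehicle wells. Duplicate plates were run and medians reported. Lung cancer cell lines in 1536-well plates were dosed by pin tool one day after seeding, with one drug or with a fixed anchor-drug dose plus five library-drug doses (not always all listed) in √10 steps, and nuclei were counted after 5 days.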

AZ628 + Navitoclax = compound: CC1=C(C=C(C=C1)NC(=O)C2=CC(=CC=C2)C(C)(C)C#N)NC3=CC4=C(C=C3)N=CN(C4=O)C [AZ628] + CC1(C)CCC(c2ccc(Cl)cc2)=C(CN2CCN(c3ccc(C(=O)NS(=O)(=O)c4ccc(N[C@H](CCN5CCOCC5)CSc5ccccc5)c(S(=O)(=O)C(F)(F)F)c4)cc3)CC2)C1 [Navitoclax] (partner 0.5 µM)
In short: as §1

AZ628 + Palbociclib = compound: CC1=C(C=C(C=C1)NC(=O)C2=CC(=CC=C2)C(C)(C)C#N)NC3=CC4=C(C=C3)N=CN(C4=O)C [AZ628] + CC(=O)c1c(C)c2cnc(Nc3ccc(N4CCNCC4)cn3)nc2n(C2CCCC2)c1=O [Palbociclib] (partner 0.5 µM)
In short: as §1

Darinaparsin + AZD7762 = compound: C[As](C)SC[C@H](NC(=O)CC[C@H](N)C(=O)O)C(=O)NCC(=O)O [Darinaparsin] + NC(=O)Nc1cc(-c2cccc(F)c2)sc1C(=O)N[C@H]1CCCNC1 [AZD7762] (partner 0.2 µM)
In short: as §1

Cell Line	relative viability (QS11 + Dasatinib; first compound 0.08 µM)	relative viability (QS11 + Dasatinib; first compound 0.253 µM)	relative viability (QS11 + Dasatinib; first compound 0.8 µM)	relative viability (QS11 + Dasatinib; first compound 2.53 µM)	relative viability (QS11 + Dasatinib; first compound 8 µM)	relative viability (AZ628 + Navitoclax; first compound 0.08 µM)	relative viability (AZ628 + Navitoclax; first compound 0.8 µM)	relative viability (AZ628 + Navitoclax; first compound 2.53 µM)	relative viability (AZ628 + Navitoclax; first compound 8 µM)	relative viability (AZ628 + Palbociclib; first compound 0.08 µM)	relative viability (AZ628 + Palbociclib; first compound 0.253 µM)	relative viability (AZ628 + Palbociclib; first compound 0.8 µM)	relative viability (AZ628 + Palbociclib; first compound 2.53 µM)	relative viability (AZ628 + Palbociclib; first compound 8 µM)	relative viability (Darinaparsin + AZD7762; first compound 0.08 µM)	relative viability (Darinaparsin + AZD7762; first compound 0.8 µM)	relative viability (Darinaparsin + AZD7762; first compound 2.53 µM)	relative viability (Darinaparsin + AZD7762; first compound 8 µM)	relative viability (AZ628 + Navitoclax; first compound 0.253 µM)
ChaGo-K-1	0.41	0.556	0.518	0.655	0.618	1.1	0.751	1.1	1.14	0.993	0.934	0.892	0.986	1.02	0.979	0.931	0.789	1.03	–
201T	0.57	0.543	0.561	0.599	0.376	1.22	1.25	1.27	1.23	0.368	0.358	0.381	0.39	0.366	0.707	0.669	0.527	0.658	1.21
EMC-BAC-2	0.341	0.337	0.376	0.285	0.269	1.26	1.07	1.06	1.05	0.521	0.55	0.535	0.519	0.554	1.18	1.04	1.28	1.26	1.09
NCI-H2405	0.196	0.2	0.206	0.276	0.325	0.49	0.53	0.415	0.575	0.4	0.4	0.347	0.35	0.353	1.04	0.666	0.68	0.817	0.64
HOP-62	0.695	0.667	0.708	0.615	0.706	1.09	1.02	1.1	0.729	0.49	0.473	0.491	0.492	0.314	0.669	0.518	0.497	0.782	1.17
NCI-H1651	0.486	0.306	0.333	0.495	0.291	1.07	1.2	1.25	1.1	0.544	0.536	0.529	0.562	0.625	0.507	0.43	0.361	0.553	1.02
NCI-H2085	0.222	0.263	0.277	0.292	0.255	1.19	1.08	1.04	0.861	0.478	0.445	0.496	0.493	0.43	0.91	0.934	0.892	1.17	1.12
NCI-H23	0.809	0.673	0.738	0.654	0.712	0.878	0.61	0.783	0.559	0.476	0.551	0.347	0.23	0.265	0.226	0.229	0.23	0.247	0.868
NCI-H1355	0.702	0.526	0.673	0.817	0.794	0.99	0.931	0.903	0.746	0.411	0.397	0.388	0.373	0.294	0.933	0.72	0.568	0.828	0.808
NCI-H1734	0.449	0.509	0.504	0.481	0.597	0.864	0.818	0.791	0.502	0.367	0.301	0.299	0.319	0.225	0.72	0.529	0.549	0.664	0.718
EPLC-272H	–	0.394	0.35	0.257	0.333	1.02	1.24	1.1	0.709	0.32	0.345	0.292	0.317	0.25	0.206	0.176	0.117	0.215	1.04
LXF-289	0.228	0.263	0.241	0.291	0.191	0.941	0.87	0.942	0.568	0.617	0.658	0.592	0.621	0.44	1.15	1.19	0.931	1.14	0.875
NCI-H1395	0.387	0.361	0.382	0.408	0.419	1.2	1.1	1.05	1.22	0.614	0.612	0.622	0.609	0.631	0.4	0.411	0.385	0.394	1.08
H3255	0.319	0.394	–	0.369	0.402	0.496	0.558	0.489	0.227	0.284	0.297	0.309	0.326	0.328	0.858	0.915	0.797	1.05	0.503
NCI-H2170	0.621	0.482	0.582	0.794	0.968	0.654	0.707	0.748	0.721	0.413	0.349	0.381	0.418	0.424	0.946	0.916	0.852	1.11	0.636
NCI-H460	0.523	0.462	0.329	0.359	0.291	1.2	1.09	1.09	0.561	0.148	0.168	0.147	0.17	0.123	0.806	0.675	0.534	0.585	1.18
PC-14	0.223	0.201	0.289	0.26	0.15	1.03	1.1	1.17	0.977	0.521	0.517	0.343	0.455	0.219	0.481	0.361	0.422	0.379	0.997

Cell Line	relative viability (QS11 + Dasatinib; first compound 0.08 µM)	relative viability (QS11 + Dasatinib; first compound 0.253 µM)	relative viability (QS11 + Dasatinib; first compound 0.8 µM)	relative viability (QS11 + Dasatinib; first compound 2.53 µM)	relative viability (QS11 + Dasatinib; first compound 8 µM)	relative viability (AZ628 + Navitoclax; first compound 0.08 µM)	relative viability (AZ628 + Navitoclax; first compound 0.8 µM)	relative viability (AZ628 + Navitoclax; first compound 2.53 µM)	relative viability (AZ628 + Navitoclax; first compound 8 µM)	relative viability (AZ628 + Palbociclib; first compound 0.08 µM)	relative viability (AZ628 + Palbociclib; first compound 0.253 µM)	relative viability (AZ628 + Palbociclib; first compound 0.8 µM)	relative viability (AZ628 + Palbociclib; first compound 2.53 µM)	relative viability (AZ628 + Palbociclib; first compound 8 µM)	relative viability (Darinaparsin + AZD7762; first compound 0.08 µM)	relative viability (Darinaparsin + AZD7762; first compound 0.8 µM)	relative viability (Darinaparsin + AZD7762; first compound 2.53 µM)	relative viability (Darinaparsin + AZD7762; first compound 8 µM)	relative viability (AZ628 + Navitoclax; first compound 0.253 µM)
HCC-15	0.649	0.611	0.532	0.73	0.49	0.676	0.54	0.474	0.312	0.708	0.718	0.656	0.677	0.421	1.48	1.32	1.11	1.12	0.619
NCI-H1437	0.397	0.347	0.404	0.531	0.391	1.09	1.19	1.25	1.07	0.317	0.297	0.274	0.425	0.379	1.2	1.2	1.03	1.26	1.09
NCI-H1975	0.357	0.31	0.423	0.512	0.455	1.09	1.02	1.04	0.654	0.504	0.485	0.548	0.534	0.233	0.751	0.684	0.662	0.741	1.04
NCI-H1666	0.783	0.839	0.568	0.583	0.528	0.865	0.728	0.772	0.513	0.678	0.666	0.683	0.71	0.685	0.706	0.897	0.915	0.873	0.771
A-427	0.646	0.718	–	0.708	0.729	0.875	0.726	0.671	0.31	0.475	0.446	0.497	0.475	0.427	0.696	0.681	0.747	0.589	0.826
EKVX	0.529	0.503	0.512	0.505	0.589	0.982	1.11	0.966	0.589	0.393	0.374	0.478	0.452	0.3	0.817	0.739	0.726	0.82	0.925
NCI-H2087	0.745	0.963	–	0.963	1.2	0.746	0.64	0.669	0.267	0.194	0.157	0.165	0.149	0.173	1.41	1.45	1.39	1.75	0.676
NCI-H1755	0.449	0.39	0.38	0.391	0.314	0.998	1.05	1.02	0.956	0.449	0.461	0.446	0.435	0.397	0.595	0.428	0.735	0.475	1
NCI-H838	0.271	0.312	0.357	0.27	0.276	1.15	1.1	1.11	0.991	0.214	0.205	0.203	0.224	0.192	1.03	0.963	0.971	1.07	1.19
NCI-H1993	0.558	0.508	0.618	0.684	0.528	1	0.859	0.688	0.709	0.685	0.548	0.496	0.595	0.266	0.965	0.723	0.628	0.84	0.872
HARA	0.294	0.281	–	0.221	0.307	1.2	1.13	1.14	0.591	0.216	0.3	0.223	0.275	0.222	0.417	–	0.335	0.371	1.12
PC-3 [JPC-3]	0.992	1.05	0.954	1.13	1.08	0.835	0.875	0.814	0.817	0.505	0.583	0.583	0.597	0.6	0.972	0.807	0.668	0.85	0.782
NCI-H441	0.802	0.689	0.496	0.786	0.827	0.565	0.765	0.902	0.633	0.184	0.18	0.147	0.145	0.151	1.2	1.08	0.815	1.13	0.508
NCI-H1793	0.381	0.374	0.472	0.419	0.48	0.533	0.53	0.384	0.285	0.35	0.403	0.305	0.266	0.255	0.581	0.553	–	0.536	0.511
NCI-H2126	0.604	0.505	0.616	0.61	0.566	0.894	0.866	0.794	0.624	0.351	0.325	0.323	0.383	0.32	1.14	1.03	0.917	1.14	0.886
BEN	0.29	0.37	0.352	0.325	0.33	0.0576	0.0651	0.0689	0.0471	0.487	0.489	0.46	0.51	0.452	0.691	0.729	0.648	0.797	0.0642
